Laboratory results as given in patent US9079853B2, “Isatin compounds, compositions and methods for treatment of degenerative diseases and disorders” (MUSC FOUNDATION FOR RESEARCH DEVELOPMENT, priority 2013, dated 2015).

tested on: 661W or C6 cells; assay: MTT assay, protection against calcium-ionophore A23187; type: cell-based; details: 1 μM ionophore, 24 h
Method: The compound 3-(4,5-Dimethylthiazol-2-yl)-2,5-diphenyltetrazolium bromide (MTT) is a tetrazolium ion that is reduced to a blue formazan dye via several families of NAD(P)H-dependent oxidoreductases. Formation of the formazan dye from MTT or other related tetrazolium dyes are commonly used as a viability assay even though, in fact, the assay is a metabolic capacity assay.
In this assay, 661W or C6 cells were maintained in DMEM supplemented with 10% FBS. 100 μL of 70,000 cells/mL cells were seeded into each well of 96 well plates using DMEM supplemented with 5% FBS. Cells were then allowed to grow to confluency for 48 hours. The compounds of the invention were added in 2 μL media and calcium-ionophore A23187 was then added in 1 μL for a final concentration of 1 μM and after 24 h, 20 μL of […] MTT were added to each well and the cells were incubated for another 4 h after which 100 μL of 1% SDS in 0.01M aqueous HCl were added to each well and the plates were incubated overnight. Absorbance was measured at […] (background correction). The 1 μM ionophore A23187 caused about 50% loss in MTT signal at 24 h. Protection was calculated as the increase in absorbance of treatment groups normalized to the vehicle control.

Row | SMILES | loss in MTT signal
1 | CNc1ccc2oc(C[C@H]3O[C@@]4(CC[C@H]3C)O[C@H]([C@H](C)C(=O)c3ccc[nH]3)[C@H](C)C[C@H]4C)nc2c1C(=O)O [Example A23187, reference compound] | about 50%

same assay, conditions: compound 800 pM; 1 μM A23187, 24 h

Row | SMILES | MTT, % protection
2 | COc1ccc(O)c(CC2(OC(=O)c3ccccc3)C(=O)N(CC(C)C)c3ccccc32)c1 (centres unmarked) [Example 54, 3-(2-hydroxy-5-methoxybenzyl)-1-isobutyl-2-oxoindolin-3-yl benzoate] | 85.8%,
3 | COc1cc(CC2(OC(=O)c3ccccc3)C(=O)N(CC(C)C)c3ccccc32)cc(OC)c1OC (centres unmarked) [Example 49, 1-isobutyl-2-oxo-3-(3,4,5-trimethoxybenzyl)indolin-3-yl benzoate] | 78.3%,
4 | CCN1C(=O)C(Cc2ccc(OC)cc2O)(OC(=O)c2ccccc2)c2ccccc21 (centres unmarked) [Example 57, 1-ethyl-3-(2-hydroxy-4-methoxybenzyl)-2-oxoindolin-3-yl benzoate] | 71%,
5 | Cc1ccc2c(c1)C(O)(Cc1ccccn1)C(=O)N2CCc1ccccc1 (centres unmarked) [Example 9, 3-hydroxy-5-methyl-1-phenethyl-3-(pyridin-2-ylmethyl)indolin-2-one] | 62.5%,

same assay, conditions: compound 1 nM; 1 μM A23187, 24 h

Row | SMILES | MTT, % protection
6 | COc1ccc(CC2(OC(=O)c3ccccc3)C(=O)N(CCCN3CCOCC3)c3ccc(Cl)cc32)c(O)c1 (centres unmarked) [Example 56, 5-chloro-3-(2-hydroxy-4-methoxybenzyl)-1-(3-morpholinopropyl)-2-oxoindolin-3-yl benzoate] | 85.3%,
7 | CCCN1C(=O)C(Cc2ccc(OC)c(OC)c2)(OC(=O)c2ccccc2)c2cc(C)ccc21 (centres unmarked) [Example 47, 3-(3,4-dimethoxybenzyl)-5-methyl-2-oxo-1-propylindolin-3-yl benzoate] | 21.8%,
8 | COc1ccc(CC2(OC(=O)c3ccccc3)C(=O)N(CCC(C)C)c3ccccc32)cc1OC (centres unmarked) [Example 45, 3-(3,4-dimethoxybenzyl)-1-isopentyl-2-oxoindolin-3-yl benzoate] | 63%,
9 | COc1cccc(CC2(OC(=O)c3ccccc3)C(=O)N(CCC(C)C)c3ccc(Cl)cc32)c1O (centres unmarked) [Example 55, 5-chloro-3-(2-hydroxy-3-methoxybenzyl)-1-isopentyl-2-oxoindolin-3-yl benzoate] | 67.4%,
10 | CCN1C(=O)C(O)(Cc2ccccn2)c2cc(Cl)ccc21 (centres unmarked) [Example 10, 5-chloro-1-ethyl-3-hydroxy-3-(pyridin-2-ylmethyl)indolin-2-one] | 52.7%,
11 | CCCN1C(=O)C(O)(Cc2ccc(OC)cn2)c2cc(Cl)ccc21 (centres unmarked) [Example 5, 5-chloro-3-hydroxy-3-((5-methoxypyridin-2-yl)methyl)-1-propylindolin-2-one] | 39.2%,
12 | CCN1C(=O)C(O)(Cc2ncccc2OC)c2cc(C)ccc21 (centres unmarked) [Example 8, 1-ethyl-3-hydroxy-3-((3-methoxypyridin-2-yl)methyl)-5-methylindolin-2-one] | 65.9%,
13 | CCN1C(=O)C(Cc2cc(OC)ccc2O)(OC(=O)c2ccccc2)c2cc(C)ccc21 (centres unmarked) [Example 60, 1-ethyl-3-(2-hydroxy-5-methoxybenzyl)-5-methyl-2-oxoindolin-3-yl benzoate] | 68.7%,
14 | COc1ccc(CC2(OC(=O)c3ccccc3)C(=O)N(CCc3ccccc3)c3ccc(C)cc32)cc1OC (centres unmarked) [Example 44, 3-(3,4-dimethoxybenzyl)-5-methyl-2-oxo-1-phenethylindolin-3-yl benzoate] | 72%,

same assay, conditions: compound 100 nM; 1 μM A23187, 24 h

Row | SMILES | MTT, % protection
15 | CC(C)CN1C(=O)C(O)(CC(=O)c2ccccn2)c2ccccc21 (centres unmarked) [Example 16, 3-hydroxy-1-isobutyl-3-(2-oxo-2-(pyridin-2-yl)ethyl)indolin-2-one] | 78.7%,
16 | CCCN1C(=O)C(Cc2ccc(OC)cc2O)(OC(=O)c2ccccc2)c2ccccc21 (centres unmarked) [Example 52, 3-(2-hydroxy-4-methoxybenzyl)-2-oxo-1-propylindolin-3-yl benzoate] | 24%,
17 | COc1cc(CC2(OC(=O)c3ccccc3)C(=O)N(CC(C)C)c3ccc(C)cc32)cc(OC)c1OC (centres unmarked) [Example 36, 1-isobutyl-5-methyl-2-oxo-3-(3,4,5-trimethoxybenzyl)indolin-3-yl benzoate] | 86.8%,
18 | CCN1C(=O)C(O)(CC(=O)c2ccccn2)c2cc(Cl)ccc21 (centres unmarked) [Example 19, 5-chloro-1-ethyl-3-hydroxy-3-(2-oxo-2-(pyridin-2-yl)ethyl)indolin-2-one] | 81.8%,
19 | CC(C)CN1C(=O)C(O)(CC(=O)c2ccccn2)c2cc(Cl)ccc21 (centres unmarked) [Example 32, 5-chloro-3-hydroxy-1-isobutyl-3-(2-oxo-2-(pyridin-2-yl)ethyl)indolin-2-one] | 102%,
20 | COc1cccc(C(=O)CC2(O)C(=O)N(CC(C)C)c3ccc(Cl)cc32)n1 (centres unmarked) [Example 17, 5-chloro-3-hydroxy-1-isobutyl-3-(2-(6-methoxypyridin-2-yl)-2-oxoethyl)indolin-2-one] | 111%,
21 | COc1cccc(C(=O)CC2(O)C(=O)N(CCN3CCCCC3)c3ccc(Cl)cc32)n1 (centres unmarked) [Example 18, 5-chloro-3-hydroxy-3-(2-(6-methoxypyridin-2-yl)-2-oxoethyl)-1-(2-(piperidin-1-yl)ethyl)indolin-2-one] | 68.8%,
22 | CCCN1C(=O)C(O)(Cc2cn(C(=O)c3ccccc3)c3ccccc23)c2cc(C)ccc21 (centres unmarked) [Example 64, 3-((1-benzoyl-1H-indol-3-yl)methyl)-3-hydroxy-5-methyl-1-propylindolin-2-one] | 51.5%,
23 | Cc1ccc2c(c1)C(O)(CC(=O)c1c[nH]c3ccccc13)C(=O)N2CCC(C)C (centres unmarked) [Example 15, 3-(2-(1H-indol-3-yl)-2-oxoethyl)-3-hydroxy-1-isopentyl-5-methylindolin-2-one] | 108.5%,
24 | CC(C)CN1C(=O)C(O)(CC(=O)c2c[nH]c3ccccc23)c2ccccc21 (centres unmarked) [Example 20, 3-(2-(1H-indol-3-yl)-2-oxoethyl)-3-hydroxy-1-isobutylindolin-2-one] | 59.5%,
25 | COc1cccc(C(=O)CC2(O)C(=O)N(CC(C)C)c3ccc(C)cc32)n1 (centres unmarked) [Example 29, 3-hydroxy-1-isobutyl-3-(2-(6-methoxypyridin-2-yl)-2-oxoethyl)-5-methylindolin-2-one] | 98.9%,
26 | C#Cc1cccc(C(=O)CC2(O)C(=O)N(CCC)c3ccc(Cl)cc32)n1 (centres unmarked) [Example 14, 5-chloro-3-(2-(6-ethynylpyridine-2-yl)-2-oxoethyl)-3-hydroxy-1-propylindolin-2-one] | 69.6%,
27 | CC(C)CCN1C(=O)C(O)(CC(=O)c2c[nH]c3ccccc23)c2ccccc21 (centres unmarked) [Example 21, 3-(2-(1H-indol-3-yl)-2-oxoethyl)-3-hydroxy-1-isopentylindolin-2-one] | 82.9%,
28 | CCN1C(=O)C(Cc2cc(OC)c(OC)c(OC)c2)(OC(=O)c2ccccc2)c2cc(C)ccc21 (centres unmarked) [Example 33, 1-ethyl-5-methyl-2-oxo-3-(3,4,5-trimethoxybenzyl)indolin-3-yl benzoate] | 50%,

same assay, conditions: compound 1 μM; 1 μM A23187, 24 h

Row | SMILES | MTT, % protection
29 | COc1ccc(CC2(OC(=O)c3ccccc3)C(=O)N(CCC(C)C)c3ccc(C)cc32)cc1OC (centres unmarked) [Example 46, 3-(3,4-dimethoxybenzyl)-1-isopentyl-5-methyl-2-oxoindolin-3-yl benzoate] | 82%,
30 | COc1ccc(CC2(O)C(=O)N(CCc3ccccc3)c3ccc(C)cc32)nc1 (centres unmarked) [Example 11, 3-hydroxy-3-((5-methoxypyridin-2-yl)methyl)-5-methyl-1-phenethylindolin-2-one] | 35.7%,
31 | CCN1C(=O)C(O)(Cc2ncccc2OC)c2cc(Cl)ccc21 (centres unmarked) [Example 7, 5-chloro-1-ethyl-3-hydroxy-3-((3-methoxypyridin-2-yl)methyl)indolin-2-one] | 43.8%,
32 | Cc1ccc2c(c1)C(O)(Cc1ncccc1Br)C(=O)N2CCC(C)C (centres unmarked) [Example 1, 3-((3-bromopyridin-2-yl)methyl)-3-hydroxy-1-isopentyl-5-methylindolin-2-one] | 12%,
33 | Cc1ccc2c(c1)C(O)(CC(=O)c1c[nH]c3ccccc13)C(=O)N2CCCN=[N+]=[N-] (centres unmarked) [Example 27, 3-(2-(1H-indol-3-yl)-2-oxoethyl)-1-(3-azidopropyl)-3-hydroxy-5-methylindolin-2-one] | 66%,

tested on: 661W or C6 cells; assay: XF FCCP-uncoupled oxygen consumption rate assay (IBMX challenge); type: cell-based; details: IBMX treatment alone, 600 μM, 24 h;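 as to XF FCCP OCR (% Ctrl): values normalized to the vehicle control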
Method: The XF FCCP-uncoupled oxygen consumption rate assay assesses mitochondrial capacity by measuring cellular respiration. It was shown that the maximum FCCP-uncoupled oxygen consumption rate (OCR) was a good estimate of maximal mitochondrial capacity (Beeson 2010) and that IBMX treatment of 661W or C6 cells for 24 h caused a loss in maximal uncoupled OCR (Perron 2013). Thus, cells were pretreated with the exemplified compounds for 1 h, added 600 μM IBMX and then measured the uncoupled rate after 24 h. In brief, the OCR measurements were performed using a Seahorse Bioscience XF instrument (Seahorse Bioscience, Billerica, Md.), as previously published (Perron 2013). O2 leakage through the plastic sides and bottom of the plate was accounted for using the AKOS algorithm in the XF software package. Cells were plated on 96- or 24-well custom plates designed for use in the XF and grown to confluency in DMEM+5% FBS (48 h). The medium was then replaced with DMEM+1% FBS for 24 h, along with any treatments.

Row | SMILES | decrease in the uncoupled rate (OCR)
34 | CC(C)Cn1c(=O)n(C)c(=O)c2[nH]cnc21 [IBMX, reference compound] | ~50%

same assay, conditions: compound 1 nM; 1 h pretreatment, 600 μM IBMX, 24 h; read-out: XF FCCP OCR (% Ctrl)

Row | SMILES | activity at 0.001 µM
35 | COc1ccc(CC2(OC(=O)c3ccccc3)C(=O)N(CCCN3CCOCC3)c3ccc(Cl)cc32)c(O)c1 (centres unmarked) [Example 56, 5-chloro-3-(2-hydroxy-4-methoxybenzyl)-1-(3-morpholinopropyl)-2-oxoindolin-3-yl benzoate] | 68%
